One compound from patent US20110059122A1, “Inhibition of the Survival of Oral Cavity Cancer by Cyclohexenone Compounds from Antrodia Camphorata” (GOLDEN BIOTECHNOLOGY CORPORATION, priority 2009, published 2011) can be followed below.

The test has as its system oral cavity cancer cell line SCC-25. The experiment in a line: In vitro survival assay (MTT) for anti-oral cavity cancer effects. It is filed as cell-based. The note with it: Homo sapiens, SCC-25 cells, 48 hours treatment, absorbance 570 nm, read-out: IC50 (half inhibition concentration), survival of oral cavity cancer cells. The procedure: Inhibiting effects of oral cavity cancer cells by cyclohexenone compounds of Antrodia camphorata from example 1 were assessed according to the anticancer-drug screening model of National Cancer Institute (NCI). The compound 4-hydroxy-2,3-dimethoxy-6-methyl-5-(3,7,11-trimethyl-dodeca-2,6,10-trienyl)-cyclohex-2-enone from example 1 was added into the culture media of oral cavity cancer cell line SCC-25 to determine the survival rates. Survival of cell was analyzed using MTT assay. SCC-25 cell line was a human squamous cell carcinoma cell line.
MTT assay is commonly used to analyze cell proliferation, survival rate of viable cells and cytotoxicity. MTT (3[4,5-dimethylthiazol-2-yl]-2,5-diphenyltetrazolium bromide) is a yellow dye which can be converted to water-insoluble purple formazan on the reductive cleavage of its tetrazolium ring by the succinate tetrazolium reductase in mitochondria of cells. The amount of formazan produced is used to detect the number of viable cells and calculate the survival rates.
The SCC-25 cells were cultivated in DMEM/F12(1:1) medium supplemented with 10% fetal bovine serum and 400 ng/ml of hydrocortisone at 37° C., 5% CO2 for 24 hours. Proliferated cells were washed once with PBS, treated with 1× trypsin-EDTA, and centrifuged at 1200 rpm for 5 min. […] The absorbances were measured at 570 nm with an ELISA Reader to determine the survival rates.

As to `COC1=C(OC)C(O)C(C/C=C(\C)CC/C=C(\C)CCC=C(C)C)C(C)C1=O` (stereo not shown) [formula 2, 4-hydroxy-2,3-dimethoxy-6-methyl-5-(3,7,11-trimethyl-dodeca-2,6,10-trienyl)-cyclohex-2-enone], the IC50 was determined as 1.05 µg/mL.
